In one series the test system is HeLa-S3. The experiment in a line: Cytotoxic evaluation on gene transfer (Example 5). In kind it is cell-based. Conditions: compared with Lipofectamine LTX and FuGENE HD.
Series [1] concerns K562. Briefly: Cytotoxic evaluation on gene transfer (Example 5). In kind it is cell-based. Conditions: compared with Lipofectamine LTX and FuGENE HD.
In another series the test system is NHDF-ad cells. The experiment in a line: Toxicity evaluation, WST-8 kit (Example 6). As to conditions: WST-8, 48 hours. In kind it is cell-based, human. On the procedure:
(NHDF-ad cells: 3.5×10^3 cells/well·DMEM+10% FBS (Pe/St) 70 μl)
(i) A 20 mM Tris-HCl (pH 7.4) buffer was dispensed into two tubes at, individually, 54.25 μl (for DL-G1) and 35.5 μl (for DL-U2).
(ii) 1.0 μg of plasmid DNA (pEGFP-luc+) was added to each of the two tubes prepared in step (i) at 2 μl (1.0 μg), and the contents were stirred.
(iii) To the prepared plasmid DNA solutions was added 37.5 μl of a DL-U2 liposome solution (N/P ratio=6), and the whole was thoroughly mixed using a vortex and incubated at room temperature for 30 minutes.
(iv) 25 μl of an Opti-MEM(R) I Reduced-Serum Medium was further added, and the whole was thoroughly mixed and allowed to stand at room temperature for 5 minutes.
(v) 2.8 and 7.0 μl per well of the DL-plasmid DNA complex solutions was individually added to three wells, and the contents were mixed (the addition amount was one-seventh the addition amount in the luciferase activity measurement).
(vi) The cells were incubated at 37° C. in 5% CO2 for 4 hours, and the growth medium was replaced.
(vii) 48 hours later, toxicity evaluation was performed according to the protocol of a WST-8 kit (Kishida Chemical Co., Ltd.) (a well to which no lipoplex solution was added was defined as 100%). […]
In general terms: Formazan colour is commonly taken as a measure of viable cells.

The subject of another series is various types of cells. The experiment in a line: Transfection of various cell strains, GFP expression (Example 8). In kind it is cell-based. As to conditions: COS7, HeLa-S3, A549, U2OS, SKOV3, Balb3T3, CHO, Jurkat, K562; 48 hours. As for the experimental part:
4 hours after the addition, the medium was replaced (however, the medium was not replaced for Jurkat, K562). […] It should be noted that experimental conditions not described in the table conformed to those of the other examples.

The test system of series [2] is K562. The experiment in a line: Gene transfer (GFP expression, luciferase activity) versus commercial agents (Example 5). In kind it is cell-based. Conditions: K562 non-adherent cells; compared with Lipofectamine LTX and FuGENE HD. As for the experimental part: pEGFP-C1 expressing a green fluorescent protein was used as a gene transfer plasmid; and adherent cells COS-7 and Hela-S3, and non-adherent cells K562, which were established cell lines, were used as target cells. Lipoplexes were individually prepared using DL-U2. Then, gene transfer was performed.
(i) A 20 mM Tris-HCl (pH 7.4) buffer was dispensed into three tubes at 35.5 μl (for NP ratio=6) for each of two tubes, and 23 μl (for NP ratio=8) for the remaining tube.
(ii) 1.0 μg of plasmid DNA (pCAG-GFP) was added to each of the three tubes prepared in step (i) at 2 μl (1.0 μg), and the contents were stirred.
(iii) A DL-U2 liposome solution was added to the three tubes prepared in step (ii) at 37.5 μl (N/P ratio=6) for each of two tubes, and 50 μl (N/P ratio=8) for the remaining tube.
(iv) 25 μl of an Opti-MEM (registered trademark) I Reduced-Serum Medium was further added, and the whole was thoroughly mixed and allowed to stand at room temperature for 5 minutes.
50 μl of the DL-plasmid DNA complex solution (N/P ratio=8) was added and mixed with the K562 cells. […]
(vii) 48 hours later, luciferase activity was measured according to the protocol of the luciferase assay system (Promega, E1501) (relative values based on the activity of LTX defined as 1 were graphed).

The structures appear in SMILES notation.

For the compound `CCCCCCCC/C=C\CCCCCCCCN(CCCCCCCC/C=C\CCCCCCCC)CCC(=O)NCCN(CCC(=O)NCCN)CCC(=O)NCCN` (racemic) [DL-G1-U2], the cytotoxicity result with HeLa-S3 and in the series on K562 [1] was “lower cytotoxicity” throughout. Moreover, the “cytotoxicity on GFP gene transfer” value in the series with NHDF-ad cells was “lower than those of most of the commercially available transfer agents”. Moreover, in the series with various types of cells, the “gene transfer into various types of cells” value is recorded as “allowed the gene to be efficiently transferred”. In addition, the gene transfer activity entry with K562 [2] is “excellent gene transfer activity”.

(Values after patent publication US8557875B2, “Gene transfer agent composition containing polyamidoamine dendron” (Public University Corporation Osaka Prefecture University, priority 2009, dated 2013).)
